Data published in ChEMBL document CHEMBL5614421, “Structure-activity relationship study of Pseudellone C as anti-glioma agents by targeting TNF/TNFR signaling pathway” (Eur J Med Chem, 2024).

What was measured:
[1] = Drug concentration in C57BL/6J mouse brain at 9 mg/kg,iv administration measured after 15 mins by LC-MS analysis; assay type: ADME, organism-based; conditions: read-out: Ct
LN-229 [2] = test: Induction of apoptosis in human LN-229 cells assessed as early apoptotic cells at 20 uM incubated for 12 hrs by Annexin V-APC/7-AAD staining based flow cytometric analysis (reference value: 2.46 %); assay type: functional
LN-229 [3] = test: Induction of apoptosis in human LN-229 cells assessed as early apoptotic cells at 20 uM incubated for 48 hrs by Annexin V-APC/7-AAD staining based flow cytometric analysis (reference value: 2.46 %); assay type: functional
LN-229 [4] = test: Induction of apoptosis in human LN-229 cells at 20 uM incubated for 24 hrs by Annexin V-APC/7-AAD staining based flow cytometric analysis relative to control; assay type: functional
LN-229 [5] = test: Induction of apoptosis in human LN-229 cells assessed as necrotic cells at 20 uM incubated for 24 hrs by Annexin V-APC/7-AAD staining based flow cytometric analysis (reference value: 1.95 %); assay type: functional
U-87 MG [6] = test: Induction of apoptosis in human U-87 MG cells assessed as late apoptotic cells at 10 uM incubated for 24 hrs by Annexin V-APC/7-AAD staining based flow cytometric analysis (reference value: 4.22 %); assay type: functional, U-87MG ATCC
LN-229 [7] = test: Induction of apoptosis in human LN-229 cells assessed as necrotic cells at 20 uM incubated for 24 hrs by Annexin V-APC/7-AAD staining based flow cytometric analysis (reference value: 0.7 %); assay type: functional
U-87 MG [8] = test: Induction of apoptosis in human U-87 MG cells assessed as upregulation of cleaved caspase-3 expression incubated for 24 hrs by Western blot analysis; assay type: functional, cell-based; conditions: U-87MG ATCC
U-87 MG [9] = test: Induction of apoptosis in human U-87 MG cells assessed as early apoptotic cells at 20 uM incubated for 24 hrs by Annexin V-APC/7-AAD staining based flow cytometric analysis (reference value: 1.59 %); assay type: functional, U-87MG ATCC
LN-229 [10] = test: Induction of apoptosis in human LN-229 cells at 20 uM incubated for 24 hrs by Annexin V-APC/7-AAD staining based flow cytometric analysis (reference value: 4.47 +/- 1.09 %); assay type: functional
LN-229 [11] = test: Induction of apoptosis in human LN-229 cells assessed as early apoptotic cells at 20 uM incubated for 24 hrs by Annexin V-APC/7-AAD staining based flow cytometric analysis (reference value: 2.46 %); assay type: functional
U-87 MG [12] = test: Induction of apoptosis in human U-87 MG cells assessed as necrotic cells at 20 uM incubated for 24 hrs by Annexin V-APC/7-AAD staining based flow cytometric analysis (reference value: 3.85 %); assay type: functional, U-87MG ATCC
U-87 MG [13] = test: Induction of apoptosis in human U-87 MG cells assessed as necrotic cells at 20 uM incubated for 48 hrs by Annexin V-APC/7-AAD staining based flow cytometric analysis (reference value: 1 %); assay type: functional, U-87MG ATCC
U-87 MG [14] = test: Induction of apoptosis in human U-87 MG cells assessed as necrotic cells at 5 uM incubated for 24 hrs by Annexin V-APC/7-AAD staining based flow cytometric analysis (reference value: 0.21 %); assay type: functional, U-87MG ATCC
LN-229 [15] = test: Induction of apoptosis in human LN-229 cells assessed as late apoptotic cells at 20 uM incubated for 48 hrs by Annexin V-APC/7-AAD staining based flow cytometric analysis (reference value: 5.1 %); assay type: functional
U-87 MG [16] = test: Antiproliferative activity against human U-87 MG cells assessed as inhibition of cell growth incubated for 68 hrs by CCK-8 assay; assay type: functional, cell-based, U-87MG ATCC
U-87 MG [17] = test: Induction of apoptosis in human U-87 MG cells assessed as late apoptotic cells at 20 uM incubated for 48 hrs by Annexin V-APC/7-AAD staining based flow cytometric analysis (reference value: 3.44 %); assay type: functional, U-87MG ATCC
U-87 MG [18] = test: Induction of apoptosis in human U-87 MG cells assessed as late apoptotic cells at 20 uM incubated for 24 hrs by Annexin V-APC/7-AAD staining based flow cytometric analysis (reference value: 4.22 %); assay type: functional, U-87MG ATCC

Compound `CCCCCCCNC(=O)[C@H](Cc1c[nH]c2ccccc12)NC(=O)C(C)(c1c[nH]c2ccccc12)c1c[nH]c2ccccc12` has a concentration at 0.25 h [1] of 91 ng/g, an Activity (LN-229 [2]) of 1.76% and an Activity (LN-229 [3]) of 18.5%. The Activity (LN-229 [4]) was 31.44%, the Activity (LN-229 [5]) was 1.94% and the Activity (U-87 MG [6]) was 6.16%. The Activity (LN-229 [7]) was 0.87%, the Activity (U-87 MG [8]) was “Dose-Dependent Effect” and the Activity (U-87 MG [9]) was 13.7%. For the same compound, the Activity (LN-229 [10]) was 21.2%, the Activity (LN-229 [11]) was 13% and the Activity (U-87 MG [12]) was 8.66%. It also gave an Activity (U-87 MG [13]) of 4.65%, an Activity (U-87 MG [14]) of 0.14% and an Activity (LN-229 [15]) of 41.9%. The IC50 (U-87 MG [16]) was 8.2 µM, the Activity (U-87 MG [17]) was 11.6% and the Activity (U-87 MG [18]) was 11.6%.
